Source: paper PMC12118671, “Increased imaging ligand hydrophilicity and improved pharmacokinetic properties provides enhanced in vivo targeting of fibroblast activation protein” (npj Imaging, 2024)
Values joined by “and” are separate entries in the source; they are usually repeats but may differ in a detail not shown here. Equal values may be shown once.

How the values were obtained:
FAP [1] = test system: FAP; design: method as in PMID 29626119; details: read-out: EC50 through competition assays; cited from earlier work
[2] = Plasma pharmacokinetics after IV bolus, non-compartmental analysis; assay type: in vivo, mouse; details: for AUC(0-inf) / C0 / clearance / half-life / Vd: mouse, plasma, healthy male DBA1/J mice, Mean ± SEM; for AUC(0-inf) / C0: IV bolus 2 nmol (FAPI dosed 51 nmol, dose normalized to 2 nmol); for clearance / half-life / Vd: IV bolus; for half-life: read-out: Terminal t1/2 (converted); for Vd: read-out: VD,ss; for clearance category (Fig. 1): words in Fig. 1
Protocol: FAPI was dosed IV (51 nmol) via the tail vein to maintain concentrations above LLOQ for PK analysis while all other FAPI conjugates were dosed IV (1 or 2 nmol in 150 µL PBS) via the tail vein. […] Whole blood was diluted with 10 mM EDTA in PBS and spun down to isolate plasma. Fluorescent ligand concentrations were quantified using a LI-COR Odyssey CLx scanner (Lincoln, NE) using a dilution series of fluorescent standards as previously reported. Non-compartmental analysis was conducted using the concentration vs. time profiles for each probe with MATLAB. The predicted initial concentration, terminal phase half-life, exposure (AUC0-inf), AUC extrapolation percentage, volume of distribution at steady state, and terminal clearance were reported for each dosed probe.

[3] = biological target: T1, cell surface FAP (HEK293-hFAP cells) (Homo sapiens, UniProt Q12884); experiment: Competition assay against FAPI-ALB-AF647 for indirect KD; assay type: binding; details: competition with FAPI-ALB-AF647, 60 nM each, 30 min on ice, read-out: KD (nM), indirectly calculated
T1 construct: expressed in transfected cells; host or cells: HEK293 (ATCC, CRL-1573), Lipofectamine 3000 transfection, puromycin selection
T1 sequence (Q12884 1-760): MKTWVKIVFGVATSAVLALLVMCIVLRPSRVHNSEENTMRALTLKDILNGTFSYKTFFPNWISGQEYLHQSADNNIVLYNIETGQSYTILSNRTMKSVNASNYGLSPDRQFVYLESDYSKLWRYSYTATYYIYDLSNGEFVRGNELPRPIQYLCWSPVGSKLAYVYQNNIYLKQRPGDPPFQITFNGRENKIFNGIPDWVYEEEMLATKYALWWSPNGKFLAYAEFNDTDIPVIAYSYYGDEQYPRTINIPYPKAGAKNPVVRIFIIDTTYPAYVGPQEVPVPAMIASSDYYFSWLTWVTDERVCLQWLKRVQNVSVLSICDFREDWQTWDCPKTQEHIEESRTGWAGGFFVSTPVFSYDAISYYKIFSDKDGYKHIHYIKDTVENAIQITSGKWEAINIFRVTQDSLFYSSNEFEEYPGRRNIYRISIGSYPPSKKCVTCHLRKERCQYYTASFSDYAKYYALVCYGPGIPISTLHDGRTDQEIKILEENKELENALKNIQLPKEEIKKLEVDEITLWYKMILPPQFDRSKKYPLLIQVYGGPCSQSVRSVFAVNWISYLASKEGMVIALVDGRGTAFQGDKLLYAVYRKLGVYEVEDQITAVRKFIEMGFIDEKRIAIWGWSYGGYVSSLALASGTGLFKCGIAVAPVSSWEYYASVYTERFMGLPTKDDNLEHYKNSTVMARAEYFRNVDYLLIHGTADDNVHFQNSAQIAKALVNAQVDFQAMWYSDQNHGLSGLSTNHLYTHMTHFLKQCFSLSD
Protocol: Both the FAPI-ALB-AF647 and the unlabeled competitor were incubated at 60 nM each on HEK293-hFAP cells for 30 min on ice to approach steady-state binding. The competition assay cells were pelleted and washed twice with PBS w/ 0.1% BSA before being analyzed using a BD Fortessa flow cytometer. The loss in signal from the competition incubation was then compared to the signal of the FAPI-ALB-AF647 incubation alone to determine the relative binding affinity.

FAP [4] = biological target: T2, FAP (Mus musculus, UniProt P97321); experiment: In vivo near-infrared imaging of paws with competitive blocking, CIA model
T2 construct: Increased FAP expression with increasing disease severity in CIA mice as assessed with IHC; from tissue; host or cells: inflamed paws of live DBA/1J mice with collagen-induced arthritis
T2 sequence (P97321 1-761): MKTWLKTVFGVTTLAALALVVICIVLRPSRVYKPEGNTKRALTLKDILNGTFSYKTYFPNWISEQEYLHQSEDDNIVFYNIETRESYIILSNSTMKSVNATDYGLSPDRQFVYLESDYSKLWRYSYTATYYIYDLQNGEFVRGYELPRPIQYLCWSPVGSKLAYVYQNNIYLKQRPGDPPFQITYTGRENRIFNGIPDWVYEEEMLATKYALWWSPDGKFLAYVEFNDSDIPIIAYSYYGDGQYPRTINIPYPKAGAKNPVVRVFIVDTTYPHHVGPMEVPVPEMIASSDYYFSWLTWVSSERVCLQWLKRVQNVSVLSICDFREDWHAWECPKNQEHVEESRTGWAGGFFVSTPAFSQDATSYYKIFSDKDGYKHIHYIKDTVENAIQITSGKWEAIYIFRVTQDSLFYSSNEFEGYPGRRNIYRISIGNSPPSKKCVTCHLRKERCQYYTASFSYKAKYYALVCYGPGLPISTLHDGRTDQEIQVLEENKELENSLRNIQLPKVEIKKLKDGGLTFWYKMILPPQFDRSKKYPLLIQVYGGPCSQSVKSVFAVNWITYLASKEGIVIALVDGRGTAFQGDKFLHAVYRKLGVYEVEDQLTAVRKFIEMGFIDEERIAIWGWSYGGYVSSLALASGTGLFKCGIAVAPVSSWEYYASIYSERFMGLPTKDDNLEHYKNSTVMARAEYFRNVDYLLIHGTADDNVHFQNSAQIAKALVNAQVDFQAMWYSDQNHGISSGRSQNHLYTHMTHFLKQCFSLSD

[5] = Plasma protein binding by equilibrium dialysis; assay type: in vitro ADME; details: CD1 mouse plasma, 1 µM, equilibrium dialysis 4 h at 37 °C
Protocol: CD1 mouse plasma protein binding was assessed via equilibrium dialysis. Dry membranes (HT Dialysis, HTD96b) were soaked in DI water for 15 min and then in 30% ethanol for another 15 min. After washing the membranes 3 times with DI water, the membranes were placed in dialysis buffer (potassium phosphate, 50 mM, pH 7.4) until the assay began. At the beginning of the assay, the membranes were placed in the dialysis block and 100 µL of buffer was added to both sides of the membrane to maintain membrane hydration/integrity. Each compound was diluted to 1 µM using plasma and then 100 µL of this mixture was added to one side of the membrane while 100 µl of […] was placed in opposite well. The plate was then sealed and placed on an orbital shaker (150 rpm) in an incubator at 37 °C for 4 h. Afterwards, samples were taken from the donor and acceptor side of the well, vortexed, centrifuged at 3300 rpm for 15 min at 4 °C and then analyzed for compound content using LC/MS.

HEK293-hFAP cells = experiment: Receptor net internalization assay, flow cytometry with Trypan Blue quench; assay type: cell-based, human; details: endogenous and overexpressing cells together
Protocol: The receptor internalization assay was adapted from a previously published method for peptides[61],[63]. Briefly, HEK293-hFAP cells were sub-cultured into 6-well plates and allowed to adhere for 12–16 h. After washing cells with media, 100 nM of FAPI-AF488 in media was added to each well. Cells were incubated at 37 °C in the continuous presence of FAPI-AF488 and allowed to internalize. At each time point, plates were chilled, wells washed twice with PBS with 0.1% BSA, and cells lifted following Accutase incubation. Lastly, cells were resuspended in PBS or a dilution of 0.4% Trypan Blue before being analyzed via flow cytometry to differentiate between internal and surface fluorescence. The surface fluorescence was determined as (unquenched MFU – quenched MFU)/ɛ, where ɛ is the quenching efficiency determined by comparing the quenched and unquenched signals of cells that had been labeled briefly on ice to prevent internalization. The internal fluorescence was then calculated as total MFU – surface MFU. Non-specific uptake of small molecules was measured using cells where FAPI-AF488 was competed out with 100-fold excess concentration of the unlabeled FAPI. The corrected internal MFU values were plotted against the surface fluorescence integral; the slope of the linear curve is the internalization rate ke[64]. The same procedure was followed for the endogenous RAFLS cells.

AUC(0-inf) [2]	C0 [2]	clearance [2]	half-life [2]	Vd [2]	clearance category (Fig. 1) [2]	Kd [3]	mean fluorescence intensity in healthy paws (FAP [4]; healthy mice, 5 h, 1 nmol IV, no block)	mean fluorescence intensity of FAPI-ALB-800CW in inflamed paws when blocked by this compound (FAP [4]; CIA mice, 24 h, 1 nmol IV probe, blocker co-administered at 50-fold molar excess)	% Protein Bound ± SD [5]	internalization half-life (t1/2) (HEK293-hFAP cells)	effect of co-dosed molar excess blocker on FAPI-800CW uptake in inflamed paws (FAP [4]; CIA mice, 5 h, 50-fold molar excess)	SMILES	EC50 (FAP [1])
												N#C[C@@H]1CC(F)(F)CN1C(=O)CNC(=O)c1ccnc2ccc(OCCCN3CCN(C(=O)CN4CCN(CC(=O)O)CCN(CC(=O)O)CCN(CC(=O)O)CC4)CC3)cc12 [FAPI-04]	6.5 nM
0.525 ± 0.025 µM·h	1250 ± 52 nM	0.0638 mL/min	60 ± 6 min	0.0039 ± 0.0002 L	Moderate clearance	8 nM	0.026 ± 0.007					CC1(C)C(/C=C/C2=C(Oc3ccc(S(=O)(=O)O)cc3)C(=C/C=C3/N(CCCCS(=O)(=O)O)c4ccc(S(=O)(=O)O)cc4C3(C)C)/CCC2)=[N+](CCCCCC(=O)N2CCN(CCCOc3ccc4nccc(C(=O)NCC(=O)N5CC(F)(F)C[C@H]5C#N)c4c3)CC2)c2ccc(S(=O)(=O)O)cc21.O=C([O-])C(F)(F)F [FAPI-800CW]	
0.088 ± 0.018 µM·h	189 ± 52 nM	0.42 mL/min	54 min	0.0145 ± 0.0084 L	Moderate clearance	3.6 nM		0.07 ± 0.01	98.9 ± 0.2%			N#CC1CC(F)(F)CN1C(=O)CNC(=O)c1ccnc2ccc(OCCCN3CCN(C(=O)C(N)CCC(=O)NCCOCCOCC(=O)NCc4ccc(S(=O)(=O)NC(=O)c5ccc(-c6ccc(C(F)(F)F)cc6)cc5)cc4)CC3)cc12 (stereo not shown) [FAPI-ALB]	
0.014 ± 0.004 µM·h	50 ± 7 nM	3.9 mL/min	30 ± 6 min	0.0627 ± 0.0184 L	Fast clearance	6 nM			44.7% and 44.7 ± 3.1%	240 to 480 min	did not provide a similar reduction	N#C[C@@H]1CC(F)(F)CN1C(=O)CNC(=O)c1ccnc2ccc(OCCCN3CCNCC3)cc12 [FAPI]	
